According to PMC6764326, “The Trials and Tribulations of Structure Assisted Design of KCa Channel Activators” (Frontiers in Pharmacology, 2019):
One block for each compound: values may come before it.

Legend:
[1] = molecular target: T1, WT KCa3.1 (Homo sapiens, UniProt O15554+P0DP23); conditions: 100 µM EBIO; control current at 250 nM free Ca2+; wild type channel
[2] = tested on: KCa3.1 over KCa2 channels; conditions: first generation activators; ref Christophersen and Wulff, 2015; cited from earlier work
[3] = tested on: S372 in KCa3.1 or the corresponding S632 residue in KCa2.3 to arginine; set-up: method as in Brown et al., 2017; conditions: ref Brown et al., 2017; cited from earlier work
[4] = tested on: KCa3.1; conditions: cited from earlier work; for EC50: ref Coleman et al., 2014, read-out: Potency of KCa3.1 activation
[5] = tested on: KCa2.2; set-up: method as in Sankaranarayanan et al., 2009; conditions: ref Sankaranarayanan et al., 2009; cited from earlier work
[6] = tested on: KCa2; set-up: method as in Coleman et al., 2014; conditions: ref Coleman et al., 2014; read-out: Potency of KCa2 activation; cited from earlier work
[7] = tested on: KCa2.3; set-up: method as in Coleman et al., 2014; conditions: ref Coleman et al., 2014; read-out: Potency of KCa2.3 activation; cited from earlier work
[8] = molecular target: T2, KCa3.1 S181A-L185A double mutant (Homo sapiens, UniProt O15554+P0DP23, L185A/S181A); assay: Inside-out patch-clamp calcium concentration-response; assay type: cell-based
T2 construct: expressed in transfected cells; host or cells: CHO cells, transient transfection
Method: (§1) All experiments were performed in either the inside-out or the whole-cell configuration of the patch-clamp technique on either transiently transfected CHO cells or Human Embryonic Kidney (HEK) cell lines stably expressing hKCa3.1 or hKCa2.2 ([Sankaranarayanan et al., 2009]). All cells were cultured in Dulbecco’s modified Eagle’s medium supplemented with 10% fetal calf serum. […]
(§2) For manual whole-cell experiments, the extracellular solution contained 160 mM NaCl, 4.5 mM KCl, 2 mM CaCl2, 1 mM MgCl2, and 10 mM HEPES (pH 7.4, 300 mOsm). Solutions on the intracellular side contained 154 mM KCl, 10 mM HEPES, 10 mM EGTA, 1.75 mM MgCl2, and 5.9 mM CaCl2 for a calculated free Ca^2+ concentration of 250 nM (pH 7.2, 290 mOsm). […] Intracellular solutions contained 154 mM KCl, 10 mM HEPES, 10 mM EGTA, 1.75 mM MgCl2, and varying amounts of CaCl2 for calculated free Ca^2+ concentrations of […] (pH 7.2, 280–300 mOsm). Free Ca^2+ concentrations were calculated using the July 3, 2009 online version of MaxChelator (https://somapp.ucdmc.ucdavis.edu/pharmacology/bers/maxchelator/webmaxc/webmaxcS.htm) assuming a temperature of 25°C, a pH of 7.2, and an ionic strength of 160 mM. […]

[9] = molecular target: T1, WT KCa3.1; assay: as above; assay type: cell-based; set-up: expressed in transfected cells; host or cells: CHO cells, transient transfection
Method: as §1, §2

SMILES: CCn1c(=O)[nH]c2ccccc21 [EBIO]
Increase of control current [1]: 5–10 fold
Selectivity for KCa3.1 over KCa2 channels [2]: 5–10 fold
Change of activator potency by S372R (KCa3.1) / S632R (KCa2.3) mutation [3]: strong reduction in potency

SMILES: O=C1Nc2c(ccc(Cl)c2Cl)C1=NO [NS309, 6,7-dichloro-1H-indole-2,3-dione 3-oxime]
Selectivity for KCa3.1 over KCa2 channels [2]: 5–10 fold
Change of activator potency by S372R (KCa3.1) / S632R (KCa2.3) mutation [3]: strong reduction in potency

SMILES: Nc1nc2c(ccc3ccccc32)s1 [SKA-31, Naphtho[1,2-d]thiazol-2-ylamine]
Activation of KCa3.1 at 10 µM ([4]; 10 µM, ref Sankaranarayanan et al., 2009): maximally activates
Activation of KCa2.2 at 10 µM [5]: maximally activates
Selectivity for KCa3.1 over KCa2 channels [2]: 5–10 fold

SMILES: Cc1nc2c(ccc3ccccc32)s1 [SKA-74, 2-methylnaphtho[1,2-d]thiazole]
EC50 [4]: ~30 µM
EC50 [6]: ~30 µM

SMILES: Nc1nc(-c2cccc3ccccc23)cs1 [SKA-75]
EC50 [4]: ~30 µM
EC50 [7]: ~30 µM

SMILES: Nc1nc(-c2ccc3ccccc3c2)cs1 [SKA-76]
EC50 [4]: ~50 µM
EC50 [7]: ~25 µM

EC50 [8]: 392 nM
nH calcium concentration-response [8]: 1.39
EC50 [9]: 437 nM
nH calcium concentration-response [9]: 1.98
SMILES: [Ca] [calcium]
